Data from US20060014723A1, “Anti-parasitic uses of borinic acid complexes” (priority 2004, published 2006).
Converted amounts (≈) assume the structure as drawn.

Columns and labels:
[1] = tested on: Trypanosoma cruzi Tulahuen C2C4 strain; experiment: Chagas disease in vitro screening model (beta-galactosidase strain in L-6 cells); type: cell-based
Summary of the method: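 L-6 rat myoblasts in RPMI 1640/10% FBS at 37 °C were infected with 5×10^3 lacZ-expressing T. cruzi Tulahuen C2C4 trypomastigotes. CPRG/Nonidet substrate was read at 540 nm, and IC50 came from sigmoidal curves.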

P. falciparum K1 = experiment: Malaria in vitro screening model (3H-hypoxanthine incorporation); type: cell-based, Plasmodium falciparum
Summary of the method: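 Chloroquine/pyrimethamine-resistant P. falciparum K1 in human A+ erythrocytes (0.15% parasitemia, 2.5% hematocrit) was exposed to seven 2-fold compound dilutions in hypoxanthine-free medium at 37 °C, low O2. After 48 h, 0.5 μCi ³H-hypoxanthine was added for 24 h more. IC50 was taken from sigmoidal curves as % of untreated control.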

P. Berghei = experiment: In vivo efficacy mouse malaria model; details: 2×/day
Protocol: Test compounds will be compared to chloroquine, artemisinin, mefloquine as follows: NMRI mice, SPF, females, […]
From a donor mouse with approximately 30% parasitemia, heparinized blood is taken and diluted in physiological saline to 10^8 parasitized erythrocytes per mL. An aliquot of 0.2 mL (=2×10^7 parasitized erythrocytes) of this suspension is injected intravenously (i.v.) into experimental groups of 4 mice.
Two-to-four hours post-infection, the experimental groups are treated with a single dose by the subcutaneous or the oral route. The compounds are prepared at an appropriate concentration, as a solution or suspension containing 3% ethanol and 7% Tween 80 or in SSV (standard suspending vehicle): […]
Twenty-four hours after the last treatment ([…]) blood smears from all animals are prepared and stained with Giemsa. Parasitemia is determined microscopically by counting 400 red blood cells (“rbcs”), for low parasitemias (<1%) up to 4,000 rbc's have to be counted. The difference between the mean value of the control group (taken as 100%) and those of the experimental groups is calculated and expressed as % Reduction where: [formula]
Additional smears will be taken on day 5 and day 6; and parasitemia will be determined and the activity calculated. Survival time (in days) is recorded, and the mean survival time is calculated. Adverse effects are recorded. Four mice/compound and a minimum of 12 mice/study (vehicle and positive controls run concurrently) are used.

Compound	IC50 ([1]; Trypanosoma cruzi, TULAHUEN, L6, read-out: T. cruzi IC50)	IC50 (P. falciparum K1; Plasmodium falciparum, K1)	% of Activity (P. Berghei; 4 × 100 mg/kg, s.c.)	Mean Survival (P. Berghei; 4 × 100 mg/kg, s.c.)	Parasitized RBC over 100 % of Control (P. Berghei; 4 × 100 mg/kg, s.c.)	Parasitized RBC over 100 Mean (P. Berghei; 4 × 100 mg/kg, s.c.)	% of Activity (P. Berghei; 4 × 300 mg/kg, p.o.)	Mean Survival (P. Berghei; 4 × 300 mg/kg, p.o.)	Parasitized RBC over 100 % of Control (P. Berghei; 4 × 300 mg/kg, p.o.)	Parasitized RBC over 100 Mean (P. Berghei; 4 × 300 mg/kg, p.o.)	T. cruzi IC50 [1]	P. falciparum IC50 (P. falciparum K1)	% of Activity (P. Berghei; 4 × 30 mg/kg, s.c.)	Mean Survival (P. Berghei; 4 × 30 mg/kg, s.c.)	Parasitized RBC over 100 % of Control (P. Berghei; 4 × 30 mg/kg, s.c.)	Parasitized RBC over 100 Mean (P. Berghei; 4 × 30 mg/kg, s.c.)	% of Activity (P. Berghei; 4 × 100 mg/kg, p.o.)	Mean Survival (P. Berghei; 4 × 100 mg/kg, p.o.)	Parasitized RBC over 100 % of Control (P. Berghei; 4 × 100 mg/kg, p.o.)	Parasitized RBC over 100 Mean (P. Berghei; 4 × 100 mg/kg, p.o.)
COc1ccc(B(Oc2cccc3cccnc23)c2cccc(Cl)c2)cc1OC [Compound 27, (3-Chlorophenyl)(3,4-dimethoxyphenyl)borinic acid quinolin-8-yl ester]	3.2 mg/L (≈ 7.93 µM)	1.7 mg/L (≈ 4.21 µM)	68.09%	18.7 days	31.91%	7.9	56.94%	15.7 days	43.08%	10.7	–	–	–	–	–	–	–	–	–	–
CC1(C)COC(c2cccc(B(Oc3cccc4cccnc34)c3cccc(C4=NC(C)(C)CO4)c3)c2)=N1 [Compound 13, Bis[3-(4,5-dihydro-4,4-dimethyloxazol-2-yl)phenyl]borinic acid 8-hydroxyquinoline ester]	–	–	–	–	–	–	–	–	–	–	8.7 mg/L	2 mg/L	52.31%	15.3 days	47.09%	11.9	81.29%	12.7 days	18.78%	4.7
